In paper PMC3192012 (Biochemistry, 2011):

Legend:
His6P4H1 [1] = target: T1, His6P4H1 (Dictyostelium discoideum, UniProt Q86KR9); assay: […]CO2-release assay with Skp1A; type: biochemical; conditions: 0.05 mM [1-14C]αKG, 5 µM Skp1A, 5 µM Fe(II), 1 mM ascorbate, pH 7.4, 29 °C, αKG antagonist
His6P4H1 [2] = target: T1, His6P4H1; assay: […]CO2-release assay with Skp1A; type: biochemical; conditions: read-out: % inhibition at 1 mM

T1 sequence (Q86KR9 whole entry): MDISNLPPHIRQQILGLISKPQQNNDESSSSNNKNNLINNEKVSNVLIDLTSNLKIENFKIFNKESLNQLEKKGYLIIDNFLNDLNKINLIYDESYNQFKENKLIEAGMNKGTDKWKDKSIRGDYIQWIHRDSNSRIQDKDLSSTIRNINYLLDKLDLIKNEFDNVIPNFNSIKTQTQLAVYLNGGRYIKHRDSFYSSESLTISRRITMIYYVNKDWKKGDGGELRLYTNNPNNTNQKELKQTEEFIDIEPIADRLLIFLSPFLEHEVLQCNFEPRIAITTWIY

| SMILES | inhibition at 1000 µM (His6P4H1 [2]) | further results |
| --- | --- | --- |
| COC(=O)CNC(=O)C(=O)OC [DMOG] |  | % inhibition (His6P4H1 [1]; EtOH carrier): the αKG antagonists DMOG and PCA, and CoCl2 (Fig. 1D) |
| O=C(O)c1ccc(O)c(O)c1 [PCA] |  | % inhibition (His6P4H1 [1]): the αKG antagonists DMOG and PCA, and CoCl2 (Fig. 1D) |

The next lines start with results.

| inhibition at 1000 µM (His6P4H1 [2]) | SMILES | further results |
| --- | --- | --- |
| 50 to 70% | O=C(O)CC(=O)C(=O)O [oxaloacetate] |  |
| 50 to 70% | O=C(O)/C=C/C(=O)O [fumarate] |  |
| 50 to 70% | O=C(O)CCC(=O)O [succinate] |  |
